Data published in patent publication US9976170B2, “Method for evaluating bacterial cell wall integrity” (UNIVERSIDAD AUTONOMA DE MADRID, priority 2011, dated 2018).
In brackets after ≈: the same amount, converted by molar mass.

What was measured:
Assay type in all cases: cell-based
[1] = test system: Escherichia coli, ampicillin- and ceftazidime-resistant strain; test: technique for evaluating cell wall integrity (lysis solution, nucleoid release, fluorescence microscopy); details: 60 minutes
Protocol: (§1) Different bacterial strains grown on a dish with Mueller-Hinton medium for 24 hours were subsequently exposed to a β-lactam antibiotic for 60 minutes in Mueller-Hinton liquid medium at 37° C., under stirring, and were finally processed by means of the technique for evaluating cell wall integrity according to the present invention.
(§2) The doses of antibiotic applied were 0, the MIC determined in the Microbiology Laboratory by means of the microdilution and/or E-test technique, and those of the cutoff points of sensitivity and resistance indicated by the Clinical and Laboratory Standards Institute (CLSI) for each strain. A dose 10 times higher than the MIC was also used.

[2] = test system: Acinetobacter baumannii, imipenem-sensitive strain with intermediate sensitivity to ceftazidime; test: as above; details: 60 minutes
Protocol: as §1, §2

[3] = test system: Escherichia coli, ceftazidime-sensitive strain with intermediate sensitivity to ampicillin; test: as above; details: 60 minutes
Protocol: as §1, §2

[4] = test system: Acinetobacter baumannii, imipenem- and ceftazidime-resistant strain; test: as above; details: 60 minutes
Protocol: as §1, §2

[5] = test system: Escherichia coli, ampicillin- and ceftazidime-resistant strain; test: MIC by microdilution and/or E-test
Text: (§3) The strains and the antibiotics used were: • Gram+ • Enterococcus faecalis.
as §2

[6] = test system: Acinetobacter baumannii, imipenem-sensitive strain with intermediate sensitivity to ceftazidime; test: MIC by microdilution and/or E-test
Text: as §3, §2

[7] = test system: Escherichia coli, ceftazidime-sensitive strain with intermediate sensitivity to ampicillin; test: MIC by microdilution and/or E-test
Text: as §3, §2

[8] = test system: Acinetobacter baumannii, imipenem- and ceftazidime-resistant strain; test: MIC by microdilution and/or E-test
Text: as §3, §2

Q: `CC(C)(O/N=C(\C(=O)N[C@@H]1C(=O)N2C(C(=O)[O-])=C(C[n+]3ccccc3)CS[C@H]12)c1csc(N)n1)C(=O)O` [ceftazidime] was tested. Which filamentous cells ([1]; 8 μg/mL) did it give?
A: 13%

Q: What about the well lysed cells ([1]; 8 μg/mL) of the same compound?
A: 1%

Q: What about the “background of extracellular DNA fragments” value (shortened to “background”) ([1]; 20 μg/mL) of the same compound?
A: without background

Q: And the filamentous cells ([1]; 20 μg/mL)?
A: 99%

Q: What about the non-lysed cells ([1]; 20 μg/mL) of the same compound?
A: 94%

Q: What about the well lysed cells ([1]; 20 μg/mL) of the same compound?
A: 5%

Q: And the “background” value ([1]; 32 μg/mL (MIC))?
A: subtle background

Q: What about the empty capsules ([1]; 32 μg/mL (MIC)) of the same compound?
A: 1%

Q: And the filamentous cells ([1]; 32 μg/mL (MIC))?
A: 98%

Q: What about the “lysed cells with nucleoid with fragmented DNA” value (from here on “lysed cells with nucleoid”) ([1]; 32 μg/mL (MIC)) of the same compound?
A: 3%

Q: And the non-lysed cells ([1]; 32 μg/mL (MIC))?
A: 92%

Q: What about the well lysed cells ([1]; 32 μg/mL (MIC)) of the same compound?
A: 4%

Q: And the “background” value ([1]; 320 μg/mL)?
A: subtle background

Q: And the “cells lysed with nucleoid with fragmented DNA” value ([1]; 320 μg/mL)?
A: 0.5%

Q: What about the filamentous cells ([1]; 320 μg/mL) of the same compound?
A: 99%

Q: And the heavily lysed cells ([1]; 320 μg/mL)?
A: 3.5%

Q: What about the moderately lysed cells ([1]; 320 μg/mL) of the same compound?
A: 95%

Q: And the non-lysed cells ([1]; 320 μg/mL)?
A: 1%

Q: What about the “background” value ([2]; 8 μg/mL) of the same compound?
A: without background

Q: What about the filamentous cells ([2]; 8 μg/mL) of the same compound?
A: 82%

Q: What about the “lysed cells with a small halo” value ([2]; 8 μg/mL) of the same compound?
A: 40%

Q: What about the “lysed cells with nucleoid” value ([2]; 8 μg/mL) of the same compound?
A: 1%

Q: And the filamentous cells ([2]; 12 μg/mL (MIC) and 20 μg/mL)?
A: 95%

Q: What about the “background” value ([2]; 12 μg/mL (MIC)) of the same compound?
A: subtle background

Q: What about the “lysed cells with a large halo” value ([2]; 12 μg/mL (MIC)) of the same compound?
A: 1.5%

Q: And the “lysed cells with a small halo” value ([2]; 12 μg/mL (MIC))?
A: 94.5%

Q: And the non-lysed cells ([2]; 12 μg/mL (MIC))?
A: 4%

Q: What about the “lysed cells with a large halo” value ([2]; 20 μg/mL) of the same compound?
A: 3%

Q: What about the “lysed cells with a small halo” value ([2]; 20 μg/mL) of the same compound?
A: 91.5%

Q: What about the non-lysed cells ([2]; 20 μg/mL) of the same compound?
A: 5.5%

Q: And the “background” value ([2]; 32 μg/mL)?
A: more background

Q: And the elongated cells ([2]; 32 μg/mL)?
A: 90%

Q: What about the “lysed cells with a large halo” value ([2]; 32 μg/mL) of the same compound?
A: 6%

Q: And the “lysed cells with a small halo” value ([2]; 32 μg/mL)?
A: 88%

Q: And the non-lysed cells ([2]; 32 μg/mL)?
A: 6%

Q: What about the “background” value ([2]; 120 μg/mL) of the same compound?
A: extensive background

Q: And the filamentous cells ([2]; 120 μg/mL)?
A: 91%

Q: What about the “lysed cells with a large halo” value ([2]; 120 μg/mL) of the same compound?
A: 23%

Q: And the “lysed cells with a small halo” value ([2]; 120 μg/mL)?
A: 67%

Q: What about the “lysed cells with nucleoid” value ([2]; 120 μg/mL) of the same compound?
A: 36%

Q: And the non-lysed cells ([2]; 120 μg/mL)?
A: 7%

Q: What about the “background” value ([3]; 1 μg/mL (MIC)) of the same compound?
A: some background

Q: What about the filamentous cells ([3]; 1 μg/mL (MIC)) of the same compound?
A: 99%

Q: And the heavily lysed cells ([3]; 1 μg/mL (MIC))?
A: 97%

Q: What about the “background” value ([3]; 8 μg/mL) of the same compound?
A: more background

Q: And the “background” value ([3]; 10 μg/mL)?
A: extensive background

Q: What about the empty capsules ([3]; 10 μg/mL) of the same compound?
A: 10.5%

Q: What about the “lysed cells with nucleoid” value ([3]; 10 μg/mL) of the same compound?
A: 11%

Q: What about the well lysed cells ([3]; 10 μg/mL) of the same compound?
A: 76.5%

Q: What about the empty capsules ([3]; 20 and 32 μg/mL) of the same compound?
A: 25.3%

Q: And the “lysed cells with nucleoid” value ([3]; 20 and 32 μg/mL)?
A: 20%

Q: What about the non-lysed cells ([3]; 20 and 32 μg/mL) of the same compound?
A: 2%

Q: What about the well lysed cells ([3]; 20 and 32 μg/mL) of the same compound?
A: 52.7%

Q: What about the “background” value ([4]; 2.560 μg/mL) of the same compound?
A: same background persists

Q: What about the “cells lysed with nucleoids with fragmented DNA” value ([4]; 2.560 μg/mL) of the same compound?
A: 25%

Q: And the cells not lysed ([4]; 2.560 μg/mL)?
A: 5%

Q: And the “cells with a large halo” value ([4]; 2.560 μg/mL)?
A: 63.5%

Q: And the “cells with a small halo” value ([4]; 2.560 μg/mL)?
A: 6.5%

Q: And the “very elongated and filamentous cells” value ([4]; 8 μg/mL)?
A: 22%

Q: What about the “background” value ([4]; 256 μg/mL) of the same compound?
A: subtle background

Q: What about the cells not lysed ([4]; 256 μg/mL) of the same compound?
A: 4.7%

Q: And the “cells with a small halo” value ([4]; 256 μg/mL)?
A: 63%

Q: And the heavily lysed cells ([4]; 256 μg/mL)?
A: 32.3%

Q: And the “background” value ([4]; 20 and 32 μg/mL)?
A: without background

Q: And the “cells with a large halo” value ([4]; 20 and 32 μg/mL)?
A: 1.5%

Q: And the “cells with a small halo” value ([4]; 20 and 32 μg/mL)?
A: 84.5%

Q: What about the filamentous cells ([4]; subsequent doses (20, 32, 256, 2.560 μg/mL)) of the same compound?
A: 90%

Q: And the MIC [5]?
A: 32 µg/mL (≈ 58.5 µM)

Q: And the MIC [6]?
A: 12 µg/mL (≈ 22 µM)

Q: What about the MIC [7] of the same compound?
A: 1 µg/mL (≈ 1.83 µM)

Q: And the MIC [8]?
A: > 32 µg/mL
